Experimental data as given in patent publication US20120088660A1, “Antifungal 1,2,4-triazolyl Derivatives” (BASF SE, priority 2009, published 2012).

Test system: Phakopsora pachyrhizi
Assay: Curative control of soy bean rust on soy beans (greenhouse test)
Type: in vivo
Settings: 300 ppm aqueous preparation sprayed to run-off after inoculation (curative); soy bean seedlings; assessed after 14 days; untreated plants 60% infected
Procedure: The spray soultions were prepared in several steps: The stock solution were prepared by adding a mixture of acetone and/or dimethylsulfoxide and the wetting agent/emulsifier Wettol, which is based on ethoxylated alkylphenoles, in a relation (volume) solvent-emulsifier of 99 to 1 to 25 mg of the compound to give a total of 10 ml. Water was then added to total volume of 100 ml. This stock solution was diluted with the described solvent-emulsifier-water mixture to the given concentration. 1. Curative Control of Soy Bean Rust on Soy Beans Caused by Phakopsora Pachyrhizi Leaves of pot-grown soy bean seedlings were inoculated with spores of Phakopsora pachyrhizi. To ensure the success of the artificial inoculation, the plants were transferred to a humid chamber with a relative humidity of about 95% and 20 to 24° C. for 24 h. The next day the plants were cultivated for 2 days in a greenhouse chamber at 23-27° C. and a relative humidity between 60 and 80%. Then the plants were sprayed to run-off with an aqueous suspension, containing the concentration of active ingredient or their mixture as described below. The plants were allowed to air-dry. Then the trial plants were cultivated for 14 days in a greenhouse chamber at 23-27° C. and a relative humidity between 60 and 80%. The extent of fungal attack on the leaves was visually assessed as % diseased leaf area.

Structure (SMILES)	infection (extent of fungal attack on the leaves, visually assessed as % diseased leaf area) [%]
CC(C)(C)C(O)(CCCCOc1ccccc1)Cn1nc[nH]c1=S (stereo not drawn) [Example 1, 1-(2-tert-Butyl-2-hydroxy-6-phenoxyhexyl)-1H-1,2,4-triazole-5(4H)-thione]	0
CC(C)(C)C(O)(CCCCOc1ccccc1F)Cn1nc[nH]c1=S (stereo not drawn) [Example 2, 1-[2-tert-Butyl-6-(2-fluorophenoxy)-2-hydroxyhexyl]-1H-1,2,4-triazole-5(4H)-thione]	0
CC(C)(C)C(O)(CCCCOc1ccc(F)cc1F)Cn1nc[nH]c1=S (stereo not drawn) [Example 3, 1-[2-tert-Butyl-6-(2,4-difluorophenoxy)-2-hydroxyhexyl]-1H-1,2,4-triazole-5(4H)-thione]	0
CC(C)(C)C(O)(CCCCOc1ccccc1Cl)Cn1nc[nH]c1=S (stereo not drawn) [Example 4, 1-[2-tert-Butyl-6-(2-chlorophenoxy)-2-hydroxyhexyl]-1H-1,2,4-triazole-5(4H)-thione]	0
CC(C)(C)C(O)(CCCCOc1ccc(Cl)cc1Cl)Cn1nc[nH]c1=S (stereo not drawn) [Example 5]	0
CC(C)(C)C(O)(CCCCOc1cccc(Cl)c1)Cn1nc[nH]c1=S (stereo not drawn) [Example 6, 1-[2-tert-Butyl-6-(3-chlorophenoxy)-2-hydroxyhexyl]-1H-1,2,4-triazole-5(4H)-thione]	0
CC(C)(C)C(O)(CCCCCOc1ccccc1F)Cn1nc[nH]c1=S (stereo not drawn) [Example 11, 1-[2-tert-butyl-7-(2-fluorophenoxy)-2-hydroxyheptyl]-1H-1,2,4-triazole-5(4H)-thione]	0
CC(C)(C)C(O)(CCCCCOc1ccc(F)cc1F)Cn1nc[nH]c1=S (stereo not drawn) [Example 13, 1-[2-tert-butyl-7-(2,4-difluorophenoxy)-2-hydroxyheptyl]-1H-1,2,4-triazole-5(4H)-thione]	0
CC(C)(C)C(O)(CCCCCOc1ccccc1Cl)Cn1nc[nH]c1=S (stereo not drawn) [Example 16, 1-[2-tert-butyl-7-(2-chlorophenoxy)-2-hydroxyheptyl]-1H-1,2,4-triazole-5(4H)-thione]	0
CC(C)(C)C(O)(CCCCCOc1cccc(Cl)c1)Cn1nc[nH]c1=S (stereo not drawn) [Example 17, 1-[2-tert-butyl-7-(3-chlorophenoxy)-2-hydroxyheptyl]-1H-1,2,4-triazole-5(4H)-thione]	0
CC(C)(C)C(O)(CCCCCOc1ccc(Cl)cc1)Cn1nc[nH]c1=S (stereo not drawn) [Example 18, 1-[2-tert-butyl-7-(4-chlorophenoxy)-2-hydroxyheptyl]-1H-1,2,4-triazole-5(4H)-thione]	0
Cc1ccc(OCCCCCC(O)(Cn2nc[nH]c2=S)C(C)(C)C)cc1 (stereo not drawn) [Example 20, 1-[2-tert-butyl-7-(4-methylphenoxy)-2-hydroxyheptyl]-1H-1,2,4-triazole-5(4H)-thione]	0
